The source made the active and inactive calls. The rule behind the calls is not given here.
Legend:
[1] = Inhibition of yeast alpha-glucosidase using p-nitrophenyl-alpha-D-glucopyranoside as substrate preincubated with enzyme for 10 mins followed by substrate addition measured after 20 mins by spectrophotometric method; parameters: species or system Saccharomyces cerevisiae
Saccharomyces cerevisiae = experiment: Non-competitive inhibition of yeast alpha-glucosidase assessed as decrease in Vmax with constant Km using p-nitrophenyl-alpha-D-glucopyranoside as substrate by Lineweaver-Burk double reciprocal plot analysis
[2] = Non-competitive inhibition of yeast alpha-glucosidase using p-nitrophenyl-alpha-D-glucopyranoside as substrate by Lineweaver-Burk double reciprocal plot analysis; parameters: species or system Saccharomyces cerevisiae

SMILES | IC50 [1] [nM] | inhibition (Saccharomyces cerevisiae) | Ki [2] [nM]
CCCCCCCCCCCCCC1=C(O)C(=O)C=C(O)C1=O [Rapanone] | 1800 |  | 
CCCCCCCCCCCC1=C(O)C(=O)C2=C(Oc3cc(O)c4c(c3C2(C)C)O[C@@H](c2ccc(O)c(O)c2)[C@H](O)C4)C1=O | 2000 |  | 
O=C(CCc1ccc(O)cc1)c1c(O)cc(O)c2c(C(=O)c3ccc(O)cc3O)c(-c3ccc(O)cc3)oc12 | 400 | Active | 3400
C[C@H]1O[C@H](O[C@H]2[C@H](O)[C@@H](O)[C@@H](O[C@H]3[C@H](O)[C@@H](O)C(O)O[C@@H]3CO)O[C@@H]2CO)[C@H](O)[C@@H](O)[C@@H]1N[C@H]1C=C(CO)[C@@H](O)[C@H](O)[C@H]1O (stereo partly drawn) [ACARBOSE] | 93600 |  | 
O=C(/C=C/c1ccc2oc(-c3ccc(O)cc3)c(C(=O)c3ccc(O)cc3O)c2c1)c1ccc(O)cc1O | 3200 |  | 
O=C(/C=C/c1ccc2c(c1)[C@H](C(=O)c1ccc(O)cc1O)[C@@H](c1ccc(O)cc1)O2)c1ccc(O)cc1O | 2300 |  | 
CCCCCCCCCCCC1=C(O)C(=O)C=C(O)C1=O [EMBELIN] | 2400 |  | 
CCCCCCCCCCCCCC1=C(O)C(=O)C2=C(Oc3cc(O)c4c(c3C2(C)C)O[C@@H](c2ccc(O)c(O)c2)[C@H](O)C4)C1=O | 1600 |  | 
COc1ccc(C(=O)[C@@H](c2coc3cc(O)ccc3c2=O)C(c2ccc(O)cc2)c2ccc(O)cc2)c(O)c1 | 6100 |  | 
O=C(/C=C/c1ccc(O)cc1)c1c(O)cc(O)c2c(C(=O)c3ccc(O)cc3O)c(-c3ccc(O)cc3)oc12 | 1300 |  | 
O=C(C[C@@H]1C(=O)c2ccc(O)cc2O[C@H]1c1ccc(O)cc1)c1ccc(O)cc1O | 26600 |  | 
COc1ccc(-c2coc3cc4c(c(OC)c3c2=O)OCO4)cc1OC | 178000 |  | 
CCCCCCCCCCCCCCCC1=C(O)C(=O)C2=C(Oc3cc(O)c4c(c3C2(C)C)O[C@@H](c2ccc(O)c(O)c2)[C@H](O)C4)C1=O | 1400 |  | 
COc1ccc(-c2coc3cc4c(c(OC)c3c2=O)OCO4)cc1 | > 200000 |  | 
O=C(/C=C/c1ccc(O)c([C@@H]2C(=O)c3c(O)cc(O)cc3O[C@H]2c2ccc(O)cc2)c1)c1ccc(O)cc1O | 2500 |  | 
O=C(/C=C/c1ccc2c(c1)[C@@H](C(=O)c1ccc(O)cc1O)[C@H](c1ccc(O)cc1)O2)c1ccc(O)cc1O | 5600 |  | 

Source: ChEMBL document CHEMBL5120781, “α-Glucosidase Inhibitors from the Stems of Knema globularia” (J Nat Prod, 2022)
